Measurements reported in patent US5244883A, “Nonapeptide bombesin antagonists” (The Administrators of the Tulane Educational Fund, priority 1990, dated 1993).
Where a SMILES comes first, the peptide text is derived from it. Where no end group is shown, it is not given here.

Experiments:
[1] = target: T1, GRP receptors on Swiss 3T3 cells (Mus musculus, UniProt P21729); test: Receptor binding assay: displacement of 125I-GRP(14-27) on Swiss 3T3 cells; design: species or system Murine; details: for IC50: calculated by Cheng and Prussoff equation IC50=Kc(1+L/Kh), 0.2 nM radioligand
T1 construct: conducted in 24-well tissue culture plates (GIBCO) using Swiss 3T3 cells; endogenous in cells; host or cells: Murine Swiss 3T3 fibroblasts (intact confluent, quiescent cells)
T1 sequence (P21729 whole entry): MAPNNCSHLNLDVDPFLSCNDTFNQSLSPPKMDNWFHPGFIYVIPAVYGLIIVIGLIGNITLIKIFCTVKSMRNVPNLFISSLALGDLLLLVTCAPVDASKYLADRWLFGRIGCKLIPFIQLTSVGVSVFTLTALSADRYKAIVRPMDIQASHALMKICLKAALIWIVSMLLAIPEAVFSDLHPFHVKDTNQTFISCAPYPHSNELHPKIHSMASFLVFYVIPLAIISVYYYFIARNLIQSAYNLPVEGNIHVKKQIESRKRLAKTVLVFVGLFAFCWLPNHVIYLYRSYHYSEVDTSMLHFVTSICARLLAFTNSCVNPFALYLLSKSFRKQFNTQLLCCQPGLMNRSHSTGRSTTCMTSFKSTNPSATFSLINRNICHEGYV
Description: (A) Receptor Binding Assay
Binding of ^125 I-GRP(14-27) and displacement by bombesin antagonists were conducted in 24-well tissue culture plates (GIBCO) using Swiss 3T3 cells. Murine Swiss 3T3 fibroblasts were maintained by weekly passage in DMEM containing 10% FCBS and antimycotics. Cultures were incubated in 5% CO2 in air at 37° C. The wells were seeded with 10^5 cells/well (viability >95%), grown to confluence and quiescency. The binding procedure was conducted 7 days after seeding. The cells were washed 2 times with 0.5 ml of binding buffer (Dulbecco's modified Eagle's medium containing […] (pH 7.4), 0.2% BSA and 100 mcg/ml bacitracin). The cells were then incubated with 0.2 nM ^125 I-GRP (14-27) in the presence or absence of different concentrations of antagonists (6×10^-11 -6×10^-6 M, total volume 0.4 ml).
According to Zachary and Rozengurt (1985) and Layton et al., (1988), binding of ^125 I-GRP at 37° C. reached a maximum value at 30 min and decreased afterwards; so, the cells were incubated at 37° C. for 30 min. After that, the cells were washed 2 times with ice-cold (4° C.) binding buffer and 2 times with the ice-cold phosphate-buffered saline (PBS,mM): NaCl 138, KCl 2.8, Na2 HPO4 8, KH2 PO4 1.45, CaCl2 0.91, MgCl2 0.49. Washed cultures were extracted in 0.5 ml of 0.5M NaOH and transferred to tubes for counting. The wells were washed once with 0.5 ml distilled water (sterile), and the washing were added to the appropriate tubes. Then the radio-activity of the samples was counted in an automatic gamma counter (Micromedic System, Inc., Huntsville, Ala.).
The Ligand - PC computerized curve fitting program of Munson and Rodbard was used to determine the types of receptor binding, dissociation constant (Kd), association constant (Ka), the maximal binding capacity of receptors (Bmax) and half-maximal inhibition (IC50).
IC50 values represent concentrations of antagonists causing half-maximal inhibition of 0.2 nM GRP(14-27) stimulated growth. Dissociation constant and maximal binding capacity of ^125 I-GRP (14-27) in our experiments were 1.32 nm and 0.769 pm/mg protein, respectively, which were similar to those reported for ^125 I-GRP and ^125 I-Tyr^4 -bombesin. Binding characteristics of GRP receptors on 3T3 cells in these experiments agree well with values obtained for bombesin binding to pancreatic acinar (Jensen et al., 1978) and pituitary cells (Westendorf and Schonbrunn, 1983).
IC50 is the concentration of unlabelled ligand that displaced half the specific radioligand binding. It is calculated according to the equation of Cheng and Prussoff (1973): IC50 =Kc (1+L/Kh), where Kc and Kh are the dissociation constants of unlabelled (cold) and labelled (hot) ligand respectively, and L is the concentration of radioligand used.

3T3 CELLS = assay type: cell-based, Murine; details: GRP 3 ng/ml alone, no antagonist; basal 207000 ± 4200
Description: (C) Inhibition of ^3 H-Thymidine incorporation by 3T3cells. SCLC cells were used 2 to 4 days after passage. Single cell suspensions were prepared by washing the cells (twice with PBS then pipetting them in PBS containing 0.2 g/liter glucose, 0.2 g/liter EDTA, and 14 mM lignocaine hydrochloride at 37° C. until the suspension appeared to be uniform (2-4 min). The cells were washed three times and resuspended in HITES without FCSB. Cultures were set up at 1.34×10^5 cells plated on day 0, all peptides added at same time in 1 ml. of RPMI-1640 medium plus HITES and 0.125% albumin. 48 hours later, 1 uc. of tritiated thymidine was added to each well and incubation continued for an additional 24 hours. Cells then were washed and deposited on glass filter paper and washed with ice cold 5% trichloro-acetic acid. Filter paper placed in vials containing scintillation fluid and counted for 1 minute. | 348,000 - 207,000 = 141,000 was taken as the stimulation

serum gastrin = test: Serum gastrin inhibition in vivo after GRP stimulation; details: rat, eight minutes after GRP 3 μg/100 g BW alone; control 16.7
Description: Bombesin analogs Peptides (5), (10) and (2) were tested in vivo on serum gastrin inhibition after GRP stimulation.

[2] = 0.2 nM 125I-GRP(14-27), Swiss 3T3 cells, 37° C. 30 min

| Compound | Kd [1, 2] [nM] | IC50 [1] [nM] | Ka ([1]; association constant, 0.2 nM 125I-GRP(14-27), Swiss 3T3 cells, 37° C. 30 min, N.D.=NO DISPLACEMENT) [nM⁻¹] | DPM ± S.E. (3T3 CELLS) [DPM] | serum gastrin level (serum gastrin) [pg/mL] |
| --- | --- | --- | --- | --- | --- |
| CC(C)C[C@@H](CN1Cc2[nH]c3ccccc3c2C[C@H]1C(N)=O)NC(=O)[C@H](Cc1c[nH]cn1)NC(=O)CNC(=O)[C@@H](NC(=O)[C@H](C)NC(=O)[C@H](Cc1c[nH]c2ccccc12)NC(=O)[C@H](CCC(N)=O)NC(=O)[C@H](N)Cc1ccccc1)C(C)C [Peptide 17, D--Phe--Gln--Trp--Ala--Val--Gly--His--Leu-psi-Tpi--NH2] | 1 | 1.2 | – | – | – |
| CC(C)C[C@@H](CN1Cc2[nH]c3ccccc3c2C[C@H]1C(N)=O)NC(=O)[C@H](Cc1c[nH]cn1)NC(=O)CNC(=O)[C@@H](NC(=O)[C@H](C)NC(=O)[C@H](Cc1c[nH]c2ccccc12)NC(=O)[C@H](CCC(N)=O)NC(=O)[C@H](N)Cc1c[nH]c2ccccc12)C(C)C [Peptide 18, D--Trp--Gln--Trp--Ala--Val--Gly--His--Leu-psi-Tpi--NH2] | 4 | 4.6 | – | – | – |
| CC(C)C[C@@H](CN1Cc2[nH]c3ccccc3c2C[C@H]1C(N)=O)NC(=O)[C@H](Cc1c[nH]cn1)NC(=O)CNC(=O)[C@@H](NC(=O)[C@H](C)NC(=O)[C@H](Cc1c[nH]c2ccccc12)NC(=O)[C@H](CCC(N)=O)NC(=O)[C@@H]1Cc2c([nH]c3ccccc23)CN1)C(C)C [Peptide 22, Tpi--Gln--Trp--Ala--Val--Gly--His--Leu-psi-Tpi--NH2] | 0.9 | 1.14 | – | – | – |
| CC(C)C[C@@H](CN1Cc2[nH]c3ccccc3c2C[C@H]1C(N)=O)NC(=O)[C@H](Cc1c[nH]cn1)NC(=O)CNC(=O)[C@@H](NC(=O)[C@H](C)NC(=O)[C@H](Cc1c[nH]c2ccccc12)NC(=O)[C@H](CCC(N)=O)NC(=O)[C@H]1Cc2c([nH]c3ccccc23)CN1)C(C)C [Peptide 26, D--Tpi--Gln--Trp--Ala--Val--Gly--His--Leu-psi-Tpi--NH2] | 22 | 25.3 | – | – | – |
| COc1ccc(CCC(=O)N[C@@H](CCC(N)=O)C(=O)N[C@@H](Cc2c[nH]c3ccccc23)C(=O)N[C@@H](C)C(=O)N[C@H](C(=O)NCC(=O)N[C@@H](Cc2c[nH]cn2)C(=O)N[C@H](CN[C@@H](Cc2c[nH]c3ccccc23)C(N)=O)CC(C)C)C(C)C)cc1 [Peptide 27, Mpp--Gln--Trp--Ala--Val--Gly--His--Leu-psi-Trp--NH2] (HELM PEPTIDE1{[COc1ccc(CCC(=O)[*:2])cc1].Q.W.A.V.G.H.[CC(C)C[C@@H](CN[C@@H](Cc1c[nH]c2ccccc12)C(N)=O)N[*:1]]}$$$$V2.0) | – | – | 0.013 | – | – |
| CC(C)C[C@@H](CN[C@@H](Cc1c[nH]c2ccccc12)C(N)=O)NC(=O)[C@H](Cc1c[nH]cn1)NC(=O)CNC(=O)[C@@H](NC(=O)[C@H](C)NC(=O)[C@H](Cc1c[nH]c2ccccc12)NC(=O)[C@H](CCC(N)=O)NC(=O)[C@H](N)Cc1ccccc1)C(C)C [Peptide 28, D--Phe--Gln--Trp--Ala--Val--Gly--His--Leu-psi-Trp--NH2] | 8 | 9.16 | – | – | – |
| CC(C)C[C@@H](CN[C@@H](Cc1c[nH]c2ccccc12)C(N)=O)NC(=O)[C@H](Cc1c[nH]cn1)NC(=O)CNC(=O)[C@@H](NC(=O)[C@H](C)NC(=O)[C@H](Cc1c[nH]c2ccccc12)NC(=O)[C@H](CCC(N)=O)NC(=O)[C@H](N)Cc1c[nH]c2ccccc12)C(C)C [Peptide 29, D--Trp--Gln--Trp--Ala--Val--Gly--His--Leu-psi-Trp--NH2] | 526 | 605 | – | – | – |
| CC(C)C[C@@H](CN[C@@H](Cc1c[nH]c2ccccc12)C(N)=O)NC(=O)[C@H](Cc1c[nH]cn1)NC(=O)CNC(=O)[C@@H](NC(=O)[C@H](C)NC(=O)[C@H](Cc1c[nH]c2ccccc12)NC(=O)[C@H](CCC(N)=O)NC(=O)[C@H]1Cc2c([nH]c3ccccc23)CN1)C(C)C [Peptide 30, D--Tpi--Gln--Trp--Ala--Val--Gly--His--Leu-psi-Trp--NH2] | 4 | 5.15 | – | – | – |
| GRP: gastrin releasing peptide, peptide amide containing 27 amino-acid with bombesin-like properties; agonist stimulus (VPLPAGGGTVLTKMYPRGNHWAVGHLM-NH2; UniProt P07492 24-50, looked up) | – | – | – | 348000 ± 15300 | 105 |
